Measurements: ChEMBL document CHEMBL1212896, “Discovery of novel cyanodihydropyridines as potent mineralocorticoid receptor antagonists” (J Med Chem, 2010)
In brackets after ≈: the same amount, converted by molar mass. Activity calls are given as the source filed them. No cut-off for these calls is given here.

Assays:
Glucocorticoid receptor = molecular target: T1, Glucocorticoid receptor (Homo sapiens, UniProt P04150); test: Antagonist activity at glucocorticoid receptor LBD expressed in human HUH7 cells coexpressing GAL4 by luciferase reporter gene assay; format: functional, cell-based, Huh-7
T1 sequence (P04150 whole entry): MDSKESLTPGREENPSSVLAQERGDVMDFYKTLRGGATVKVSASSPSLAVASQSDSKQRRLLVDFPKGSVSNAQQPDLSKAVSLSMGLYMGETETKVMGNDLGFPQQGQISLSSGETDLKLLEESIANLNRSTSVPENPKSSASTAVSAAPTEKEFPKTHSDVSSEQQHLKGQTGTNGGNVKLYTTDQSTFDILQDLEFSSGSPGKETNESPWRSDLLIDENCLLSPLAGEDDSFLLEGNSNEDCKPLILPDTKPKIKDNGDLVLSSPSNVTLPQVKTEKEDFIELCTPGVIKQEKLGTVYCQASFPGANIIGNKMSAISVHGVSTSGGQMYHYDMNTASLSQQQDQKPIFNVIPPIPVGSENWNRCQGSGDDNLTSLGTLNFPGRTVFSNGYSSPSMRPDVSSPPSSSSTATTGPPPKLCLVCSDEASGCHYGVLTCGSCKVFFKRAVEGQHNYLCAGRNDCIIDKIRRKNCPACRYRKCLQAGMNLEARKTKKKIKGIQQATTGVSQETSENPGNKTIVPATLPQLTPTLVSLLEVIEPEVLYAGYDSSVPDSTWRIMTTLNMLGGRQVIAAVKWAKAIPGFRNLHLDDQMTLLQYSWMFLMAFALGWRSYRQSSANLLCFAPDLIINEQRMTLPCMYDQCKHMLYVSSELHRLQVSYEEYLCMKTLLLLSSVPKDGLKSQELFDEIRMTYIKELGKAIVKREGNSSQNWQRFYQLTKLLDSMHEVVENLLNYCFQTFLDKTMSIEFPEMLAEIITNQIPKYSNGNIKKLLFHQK

Progesterone receptor = molecular target: T2, Progesterone receptor (Homo sapiens, UniProt P06401); test: Antagonist activity at progesterone receptor LBD expressed in human HUH7 cells coexpressing GAL4 by luciferase reporter gene assay; format: functional, cell-based, Huh-7
T2 sequence (P06401 whole entry): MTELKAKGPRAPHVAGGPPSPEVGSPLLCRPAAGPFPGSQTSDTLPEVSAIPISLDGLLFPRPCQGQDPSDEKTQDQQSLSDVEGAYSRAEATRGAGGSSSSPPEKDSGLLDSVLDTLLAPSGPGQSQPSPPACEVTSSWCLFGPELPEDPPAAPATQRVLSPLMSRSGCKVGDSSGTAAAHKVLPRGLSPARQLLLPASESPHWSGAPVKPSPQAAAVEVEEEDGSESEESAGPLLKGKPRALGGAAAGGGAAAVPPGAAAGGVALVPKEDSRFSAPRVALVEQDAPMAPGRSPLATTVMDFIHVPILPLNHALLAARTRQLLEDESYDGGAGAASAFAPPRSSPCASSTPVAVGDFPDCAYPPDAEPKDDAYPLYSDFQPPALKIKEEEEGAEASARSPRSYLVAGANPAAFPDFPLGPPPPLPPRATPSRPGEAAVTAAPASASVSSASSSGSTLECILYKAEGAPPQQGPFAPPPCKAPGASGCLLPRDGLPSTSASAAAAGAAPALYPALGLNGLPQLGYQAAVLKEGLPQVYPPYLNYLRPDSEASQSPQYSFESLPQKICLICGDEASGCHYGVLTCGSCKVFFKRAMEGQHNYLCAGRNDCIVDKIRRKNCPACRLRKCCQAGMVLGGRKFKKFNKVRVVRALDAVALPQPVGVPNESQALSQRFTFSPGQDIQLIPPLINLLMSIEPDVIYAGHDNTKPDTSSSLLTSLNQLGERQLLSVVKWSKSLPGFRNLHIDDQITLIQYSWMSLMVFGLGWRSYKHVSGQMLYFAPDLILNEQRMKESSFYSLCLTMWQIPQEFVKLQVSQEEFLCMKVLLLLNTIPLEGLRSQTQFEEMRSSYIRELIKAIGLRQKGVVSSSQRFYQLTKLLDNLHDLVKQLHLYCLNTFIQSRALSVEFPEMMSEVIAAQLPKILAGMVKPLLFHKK

Liver microsomes [1] = test: Metabolic stability in human liver microsomes assessed as compound remaining; format: ADME, Microsome
Liver microsomes [2] = test: Metabolic stability in rat liver microsomes assessed as compound remaining; format: ADME, Microsome
Cytochrome P450 3A4 = Cytochrome P450 3A4 (Homo sapiens, UniProt P08684); test: Inhibition of CYP3A4; format: ADME
Chain of Cytochrome P450 3A4 (P08684 whole entry): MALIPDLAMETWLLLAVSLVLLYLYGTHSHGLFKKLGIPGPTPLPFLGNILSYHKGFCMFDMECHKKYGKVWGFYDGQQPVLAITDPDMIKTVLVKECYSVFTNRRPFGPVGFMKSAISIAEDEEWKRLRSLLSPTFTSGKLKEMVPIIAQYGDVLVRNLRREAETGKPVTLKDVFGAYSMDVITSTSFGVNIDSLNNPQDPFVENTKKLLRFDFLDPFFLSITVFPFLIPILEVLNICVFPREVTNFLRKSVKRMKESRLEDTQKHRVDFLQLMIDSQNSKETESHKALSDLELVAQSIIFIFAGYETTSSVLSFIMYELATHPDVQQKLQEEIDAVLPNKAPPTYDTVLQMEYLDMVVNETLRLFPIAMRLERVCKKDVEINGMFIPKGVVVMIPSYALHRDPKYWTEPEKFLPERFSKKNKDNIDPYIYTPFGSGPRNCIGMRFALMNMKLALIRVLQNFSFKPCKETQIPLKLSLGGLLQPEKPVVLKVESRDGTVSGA

Cytochrome P450 2C9 = Cytochrome P450 2C9 (Homo sapiens, UniProt P11712); test: Inhibition of CYP2C9; format: ADME
Chain of Cytochrome P450 2C9 (P11712 whole entry): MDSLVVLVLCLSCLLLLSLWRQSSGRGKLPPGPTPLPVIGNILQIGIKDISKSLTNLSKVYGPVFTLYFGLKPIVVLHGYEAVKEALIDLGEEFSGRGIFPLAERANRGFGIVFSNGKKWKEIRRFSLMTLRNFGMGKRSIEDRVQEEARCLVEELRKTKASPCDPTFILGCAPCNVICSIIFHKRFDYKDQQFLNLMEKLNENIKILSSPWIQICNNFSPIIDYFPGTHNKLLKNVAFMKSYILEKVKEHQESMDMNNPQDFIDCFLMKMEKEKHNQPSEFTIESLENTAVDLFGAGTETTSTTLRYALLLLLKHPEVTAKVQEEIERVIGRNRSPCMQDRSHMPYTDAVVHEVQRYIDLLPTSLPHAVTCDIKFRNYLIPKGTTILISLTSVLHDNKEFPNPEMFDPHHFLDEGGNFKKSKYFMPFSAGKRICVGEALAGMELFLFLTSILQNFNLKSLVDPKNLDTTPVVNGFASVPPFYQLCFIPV

Cytochrome P450 2D6 = Cytochrome P450 2D6 (Homo sapiens, UniProt P10635); test: Inhibition of CYP2D6; format: ADME
Chain of Cytochrome P450 2D6 (P10635 whole entry): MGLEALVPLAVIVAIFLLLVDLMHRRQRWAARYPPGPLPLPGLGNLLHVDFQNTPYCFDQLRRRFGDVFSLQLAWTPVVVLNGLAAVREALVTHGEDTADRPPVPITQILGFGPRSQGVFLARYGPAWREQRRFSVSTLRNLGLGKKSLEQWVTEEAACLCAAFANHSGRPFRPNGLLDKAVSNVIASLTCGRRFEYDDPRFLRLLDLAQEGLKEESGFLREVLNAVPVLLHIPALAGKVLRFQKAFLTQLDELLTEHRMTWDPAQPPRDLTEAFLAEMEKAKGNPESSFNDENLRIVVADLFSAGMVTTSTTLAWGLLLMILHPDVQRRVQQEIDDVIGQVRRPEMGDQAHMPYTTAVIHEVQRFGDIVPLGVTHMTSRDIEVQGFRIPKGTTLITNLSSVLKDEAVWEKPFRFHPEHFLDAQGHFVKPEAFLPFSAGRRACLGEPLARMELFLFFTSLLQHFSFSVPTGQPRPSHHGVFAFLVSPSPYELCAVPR

[3] = Solubility of the compound; format: physicochemical
[4] = molecular target: T3, Mineralocorticoid receptor (Homo sapiens, UniProt P08235)
T3 sequence (P08235 whole entry): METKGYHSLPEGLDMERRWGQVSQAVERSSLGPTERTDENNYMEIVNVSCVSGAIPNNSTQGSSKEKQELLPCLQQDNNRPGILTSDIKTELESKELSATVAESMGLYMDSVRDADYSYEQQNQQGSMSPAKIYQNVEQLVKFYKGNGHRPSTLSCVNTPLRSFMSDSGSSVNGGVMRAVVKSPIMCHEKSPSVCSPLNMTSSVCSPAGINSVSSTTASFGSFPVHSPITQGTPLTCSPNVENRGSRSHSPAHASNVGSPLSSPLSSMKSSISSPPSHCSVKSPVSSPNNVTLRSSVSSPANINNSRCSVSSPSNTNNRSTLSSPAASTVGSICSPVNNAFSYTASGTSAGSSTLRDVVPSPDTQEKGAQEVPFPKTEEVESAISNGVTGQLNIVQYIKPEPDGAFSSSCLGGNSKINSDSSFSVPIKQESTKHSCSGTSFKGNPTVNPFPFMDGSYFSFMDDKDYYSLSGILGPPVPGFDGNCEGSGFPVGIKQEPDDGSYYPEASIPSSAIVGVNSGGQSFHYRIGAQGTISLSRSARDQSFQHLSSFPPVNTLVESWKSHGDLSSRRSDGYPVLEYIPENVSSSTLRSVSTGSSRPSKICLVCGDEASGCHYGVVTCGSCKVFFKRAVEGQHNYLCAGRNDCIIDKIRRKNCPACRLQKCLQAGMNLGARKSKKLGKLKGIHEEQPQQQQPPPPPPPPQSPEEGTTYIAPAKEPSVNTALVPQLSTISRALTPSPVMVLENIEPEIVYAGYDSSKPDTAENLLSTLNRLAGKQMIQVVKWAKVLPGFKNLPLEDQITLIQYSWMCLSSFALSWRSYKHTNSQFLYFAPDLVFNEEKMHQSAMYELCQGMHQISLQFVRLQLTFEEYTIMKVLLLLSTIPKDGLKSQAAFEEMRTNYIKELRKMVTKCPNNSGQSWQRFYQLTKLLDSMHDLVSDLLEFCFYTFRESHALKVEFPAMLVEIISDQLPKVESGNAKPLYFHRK
Description: Antagonist activity at mineralocorticoid receptor LBD expressed in human HUH7 cells coexpressing GAL4 by luciferase reporter gene assay

Androgen receptor = molecular target: T4, Androgen receptor (Homo sapiens, UniProt P10275); test: Antagonist activity at androgen receptor LBD expressed in human HUH7 cells coexpressing GAL4 by luciferase reporter gene assay; format: functional, cell-based, Huh-7
T4 sequence (P10275 whole entry): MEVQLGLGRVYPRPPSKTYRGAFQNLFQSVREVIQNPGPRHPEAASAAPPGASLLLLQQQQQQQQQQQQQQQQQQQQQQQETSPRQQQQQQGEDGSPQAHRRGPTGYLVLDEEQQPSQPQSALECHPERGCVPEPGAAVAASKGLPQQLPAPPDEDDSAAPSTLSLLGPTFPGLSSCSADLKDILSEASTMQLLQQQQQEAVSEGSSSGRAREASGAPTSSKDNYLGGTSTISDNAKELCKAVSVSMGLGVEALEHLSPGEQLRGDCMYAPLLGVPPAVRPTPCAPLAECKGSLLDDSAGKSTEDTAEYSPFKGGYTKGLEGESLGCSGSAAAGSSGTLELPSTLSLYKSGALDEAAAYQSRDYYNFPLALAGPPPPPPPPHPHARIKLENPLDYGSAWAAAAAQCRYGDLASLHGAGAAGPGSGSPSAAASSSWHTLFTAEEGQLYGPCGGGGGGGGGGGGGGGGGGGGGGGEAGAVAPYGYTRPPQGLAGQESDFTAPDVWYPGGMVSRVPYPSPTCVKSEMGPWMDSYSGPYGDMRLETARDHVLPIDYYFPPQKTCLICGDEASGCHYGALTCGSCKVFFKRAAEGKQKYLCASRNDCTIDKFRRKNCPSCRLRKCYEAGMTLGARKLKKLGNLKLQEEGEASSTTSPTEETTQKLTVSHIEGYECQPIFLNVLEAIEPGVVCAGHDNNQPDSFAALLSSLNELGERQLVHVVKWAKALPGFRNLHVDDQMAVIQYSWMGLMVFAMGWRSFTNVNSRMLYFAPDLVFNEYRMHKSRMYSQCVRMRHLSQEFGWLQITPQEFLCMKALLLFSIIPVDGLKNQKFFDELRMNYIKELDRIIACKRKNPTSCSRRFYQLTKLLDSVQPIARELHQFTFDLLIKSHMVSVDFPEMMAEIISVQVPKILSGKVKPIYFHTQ

[5] = Intrinsic clearance in rat liver microsomes; format: ADME, Microsome
Rattus norvegicus [6] = test: Antihypertensive activity in Dahl salt-sensitive rat model assessed as decrease of systolic blood pressure at 100 mg/kg administered with chow diet for 21 days; format: functional, organism-based; design: dose 100 mg/kg; settings: Artery
Rattus norvegicus [7] = test: Antihypertensive activity in Dahl salt-sensitive rat model assessed as decrease of systolic blood pressure at 60 mg/kg, po bid for 21 days; format: functional, organism-based; design: dose 60 mg/kg; settings: Artery
Rattus norvegicus [8] = test: Protection of renal injury in Dahl salt-sensitive rat model assessed as reduction of urinal albumin excretion at 60 mg/kg, po bid for 21 days; format: functional, organism-based; design: dose 60 mg/kg

| IC50 (Androgen receptor) [µM] | CLint scaled [5] [mL/min/kg] | SMILES | IC50 (Glucocorticoid receptor) [µM] | IC50 (Progesterone receptor) [µM] | Stability (Liver microsomes [1]) [%] | Stability (Liver microsomes [2]) [%] | IC50 (Cytochrome P450 3A4) [µM] | IC50 (Cytochrome P450 2C9) [µM] | IC50 (Cytochrome P450 2D6) [µM] | solubility [3] [µM] | IC50 [4] [µM] | Activity (Rattus norvegicus [6]) | Activity (Rattus norvegicus [7]) | Activity (Rattus norvegicus [8]) |
| --- | --- | --- | --- | --- | --- | --- | --- | --- | --- | --- | --- | --- | --- | --- |
| – | – | COC(=O)C1=C(Cn2cccn2)NC(C)=C(C#N)C1c1ccc(F)cc1Cl (stereo unspecified) | 3.3 | 5.5 | 2 | 31 | 1.1 | 0.6 | > 10 | > 5 | 0.054 | – | – | – |
| 0.3 | 8.71 | COC(=O)C1=C(Cn2cnnn2)NC(C)=C(C#N)[C@H]1c1ccc(F)cc1Cl | 1 | 7.2 | – | – | > 10 | > 10 | > 10 | 32 (≈ 12.4 µg/mL) | 0.052 | – | – | – |
| – | – | COC(=O)[C@@H]1CC2=CC(=O)CC[C@]2(C)[C@@]23O[C@@H]2C[C@@]2(C)[C@@H](CC[C@@]24CCC(=O)O4)[C@H]13 | – | – | – | – | – | – | – | – | – | Active | Active | Active |
